# Experimental data: ChEMBL document CHEMBL1143875, “Synthesis and structure-activity relationships of thiadiazole-derivatives as potent and orally active peroxisome proliferator-activated receptors alpha/delta dual agonists” (Bioorg Med Chem, 2008)
# The source made the active and inactive calls. The calls are words filed in the database; no cut-off is given here.
# Columns and labels:
# [1] = Activity at retinoic acid receptor
# [2] = Induction of ABCA1 gene expression in human skeletal muscle cells at 1000 nM by RT-PCR; assay type: functional
# [3] = Induction of Pa9 gene expression in human skeletal muscle cells at 1 nM by RT-PCR; assay type: functional
# [4] = Induction of Pa9 gene expression in human skeletal muscle cells at 1000 nM by RT-PCR; assay type: functional
# [5] = Inhibition of cytochrome P450 in human liver microsome; assay type: ADME, microsomes
# Rattus norvegicus = assay: Decrease in triglyceride level in po dosed hypercholesterolemic Sprague-Dawley rat serum after 8 days; assay type: functional, organism-based
# [6] = Cmax in Sprague-Dawley rat at 0.3 mg/kg administered as multiple dose after 8 days; assay type: ADME, organism-based; design: dose 0.3 mg/kg; conditions: in vivo
# [7] = Cmax in Sprague-Dawley rat at 3 mg/kg administered as single dose on day 8; assay type: ADME, organism-based; design: dose 3 mg/kg; conditions: in vivo
# [8] = AUC in Sprague-Dawley rat at 1 mg/kg administered as multiple dose after 8 days; assay type: ADME, organism-based; design: dose 1 mg/kg; conditions: plasma
# [9] = AUC in Sprague-Dawley rat at 3 mg/kg administered as multiple dose after 8 days; assay type: ADME, organism-based; design: dose 3 mg/kg; conditions: plasma
# [10] = AUC in Sprague-Dawley rat at 3 mg/kg administered as single dose on day 8; assay type: ADME, organism-based; design: dose 3 mg/kg; conditions: plasma
# [11] = Half life in Sprague-Dawley rat at 0.1 mg/kg administered as multiple dose after 8 days; assay type: ADME, organism-based; design: dose 0.1 mg/kg; conditions: in vivo
# [12] = Half life in Sprague-Dawley rat at 0.3 mg/kg administered as multiple dose after 8 days; assay type: ADME, organism-based; design: dose 0.3 mg/kg; conditions: in vivo
# [13] = Half life in Sprague-Dawley rat at 3 mg/kg administered as single dose on day 8; assay type: ADME, organism-based; design: dose 3 mg/kg; conditions: in vivo
# Mus musculus [14] = assay: Increase in HDL cholesterol level in po dosed hApoA1 transgenic mouse after 7 days; assay type: functional, organism-based
# Mus musculus [15] = assay: […] effect of ob/ob C57BL/6J-leptin deficient obese mouse assessed as reduction in serum glucose level at 0.1 to 3 mg/kg, po after 11 days; assay type: functional; design: scale not given: the % may be the effect or the level left; conditions: dose mg/kg 0.1-3
# [16] = AUC in Beagle dog at 0.3 mg/kg administered as multiple dose after 7 days; assay type: ADME, organism-based, Canis lupus familiaris; design: dose 0.3 mg/kg; conditions: plasma
# [17] = AUC in Beagle dog at 1 mg/kg administered as multiple dose after 7 days; assay type: ADME, organism-based, Canis lupus familiaris; design: dose 1 mg/kg; conditions: plasma
# [18] = AUC in Beagle dog at 3 mg/kg administered as multiple dose after 7 days; assay type: ADME, organism-based, Canis lupus familiaris; design: dose 3 mg/kg; conditions: plasma
# [19] = Half life in Beagle dog at 1 mg/kg administered as multiple dose after 7 days; assay type: ADME, organism-based, Canis lupus familiaris; design: dose 1 mg/kg; conditions: in vivo
# [20] = Half life in Beagle dog at 10 mg/kg administered as multiple dose after 7 days; assay type: ADME, organism-based, Canis lupus familiaris; design: dose 10 mg/kg; conditions: in vivo
# Mus musculus [21] = assay: […] effect of ob/ob C57BL/6J-leptin deficient obese mouse assessed as reduction in body weight at 0.1 to 3 mg/kg, po after 11 days; assay type: functional, organism-based
# Mus musculus [22] = assay: […] effect of ob/ob C57BL/6J-leptin deficient obese mouse assessed as increase in liver weight at 0.1 to 3 mg/kg, po after 11 days; assay type: functional; conditions: dose mg/kg 0.1-3
# [23] = Cmax in ob/ob C57BL/6J-leptin deficient obese mouse at 0.1 mg/kg administered as multiple dose after 11 days; assay type: ADME, organism-based; design: dose 0.1 mg/kg; conditions: in vivo
# [24] = Cmax in ob/ob C57BL/6J-leptin deficient obese mouse at 3 mg/kg administered as multiple dose after 11 days; assay type: ADME, organism-based; design: dose 3 mg/kg; conditions: in vivo
# [25] = Cmax in ob/ob C57BL/6J-leptin deficient obese mouse at 3 mg/kg administered as single dose on day 11; assay type: ADME, organism-based; design: dose 3 mg/kg; conditions: in vivo
# [26] = AUC in ob/ob C57BL/6J-leptin deficient obese mouse at 0.1 mg/kg administered as multiple dose after 11 days; assay type: ADME, organism-based; design: dose 0.1 mg/kg; conditions: plasma
# [27] = AUC in ob/ob C57BL/6J-leptin deficient obese mouse at 3 mg/kg administered as multiple dose after 11 days; assay type: ADME, organism-based; design: dose 3 mg/kg; conditions: plasma
# [28] = AUC in ob/ob C57BL/6J-leptin deficient obese mouse at 3 mg/kg administered as single dose on day 11; assay type: ADME, organism-based; design: dose 3 mg/kg; conditions: plasma
# [29] = Half life in ob/ob C57BL/6J-leptin deficient obese mouse at 0.1 mg/kg administered as multiple dose after 11 days; assay type: ADME, organism-based; design: dose 0.1 mg/kg; conditions: in vivo
# Canis familiaris [30] = assay: Antihyperlipidemic activity in Beagle dog serum assessed as reduction in triglyceride level at 0.3 to 10 mg/kg, po/day after 7 days; assay type: functional, organism-based; conditions: Canis lupus familiaris
# Canis familiaris [31] = assay: Antihyperlipidemic activity in Beagle dog serum assessed as reduction in total cholesterol level at 0.3 to 10 mg/kg, po/day after 7 days; assay type: functional, organism-based; conditions: Canis lupus familiaris
# Canis familiaris [32] = assay: Antihyperlipidemic activity in Beagle dog serum assessed as reduction in free fatty acids level at 0.3 to 10 mg/kg, po/day after 7 days; assay type: functional, organism-based; conditions: Canis lupus familiaris
# Canis familiaris [33] = assay: Effect on alanine aminotransferase level in Beagle dog serum at 0.3 to 3 mg/kg, po/day after 7 days; assay type: functional, organism-based; conditions: Canis lupus familiaris
# [34] = Cmax in Beagle dog at 1 mg/kg administered as multiple dose after 7 days; assay type: ADME, organism-based, Canis lupus familiaris; design: dose 1 mg/kg; conditions: in vivo
# [35] = Cmax in Beagle dog at 10 mg/kg administered as multiple dose after 7 days; assay type: ADME, organism-based, Canis lupus familiaris; design: dose 10 mg/kg; conditions: in vivo
# [36] = biological target: T1, Peroxisome proliferator-activated receptor delta (Homo sapiens, UniProt Q03181); assay: Agonist activity at human PPARdelta-Gal4 in HEK293 cells by luciferase reporter assay; assay type: functional, cell-based
# T1 sequence (Q03181 whole entry): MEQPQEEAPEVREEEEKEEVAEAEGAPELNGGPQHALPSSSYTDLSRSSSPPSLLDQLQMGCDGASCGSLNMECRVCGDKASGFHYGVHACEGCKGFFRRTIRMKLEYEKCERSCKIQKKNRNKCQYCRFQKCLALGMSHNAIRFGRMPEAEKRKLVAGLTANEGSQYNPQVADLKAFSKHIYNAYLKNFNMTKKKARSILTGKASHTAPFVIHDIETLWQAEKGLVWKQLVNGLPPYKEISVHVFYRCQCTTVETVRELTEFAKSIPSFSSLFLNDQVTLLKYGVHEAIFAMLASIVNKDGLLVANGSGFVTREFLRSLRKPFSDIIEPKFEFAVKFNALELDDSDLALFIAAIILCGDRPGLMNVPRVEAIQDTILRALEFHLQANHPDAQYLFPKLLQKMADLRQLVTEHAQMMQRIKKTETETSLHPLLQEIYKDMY
# [37] = biological target: T2, Bile acid receptor (Homo sapiens) (UniProt Q96RI1); assay: Activity at farnesoid X receptor
# T2 sequence (whole entry): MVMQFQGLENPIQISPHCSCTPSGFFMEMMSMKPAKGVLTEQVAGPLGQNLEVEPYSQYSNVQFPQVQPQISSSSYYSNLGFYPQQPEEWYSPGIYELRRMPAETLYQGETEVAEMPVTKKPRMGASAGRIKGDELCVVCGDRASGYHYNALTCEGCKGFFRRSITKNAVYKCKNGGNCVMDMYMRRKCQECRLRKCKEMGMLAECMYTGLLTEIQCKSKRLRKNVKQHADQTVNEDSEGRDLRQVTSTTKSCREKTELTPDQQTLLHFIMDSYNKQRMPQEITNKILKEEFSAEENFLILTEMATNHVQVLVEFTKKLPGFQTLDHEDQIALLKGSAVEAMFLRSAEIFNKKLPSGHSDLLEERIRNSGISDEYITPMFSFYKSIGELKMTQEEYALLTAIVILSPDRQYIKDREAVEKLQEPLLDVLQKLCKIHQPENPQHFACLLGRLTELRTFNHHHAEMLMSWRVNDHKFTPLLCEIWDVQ
smiles,measurement,setting,value
Cc1cc(SCc2nc(-c3ccc(Cl)c(Cl)c3)ns2)ccc1OC(C)(C)C(=O)O,Activity,[1],inactive
same,Fold change,[2],4.8
same,Fold change,[3],3.8
same,Fold change,[4],15
same,IC50,[5],> 30000 nM
same,Activity,Rattus norvegicus,Dose-dependent effect
same,Cmax,[6],231 ng/mL
same,Cmax,[7],2520 ng/mL
same,AUC at 192 h,[8],13900 ng·h/mL
same,AUC at 192 h,[9],27100 ng·h/mL
same,AUC,[10],24200 ng·h/mL
same,half-life,[11],5.5 h
same,half-life,[12],5.1 h
same,half-life,[13],7.2 h
same,Activity,Mus musculus [14],Dose-dependent effect
same,Activity,Mus musculus [15],52%
same,AUC at 168 h,[16],2650 ng·h/mL
same,AUC at 168 h,[17],6500 ng·h/mL
same,AUC at 168 h,[18],24100 ng·h/mL
same,half-life,[19],4.7 h
same,half-life,[20],6.2 h
same,Activity,Mus musculus [21],Active
same,Activity,Mus musculus [22],65%
same,Cmax,[23],480 ng/mL
same,Cmax,[24],26300 ng/mL
same,Cmax,[25],19300 ng/mL
same,AUC at 264 h,[26],2780 ng·h/mL
same,AUC at 264 h,[27],249000 ng·h/mL
same,AUC,[28],115000 ng·h/mL
same,half-life,[29],5.1 h
same,Activity,Canis familiaris [30],Dose-dependent effect
same,Activity,Canis familiaris [31],Dose-dependent effect
same,Activity,Canis familiaris [32],Dose-dependent effect
same,Activity,Canis familiaris [33],inactive
same,Cmax,[34],1530 ng/mL
same,Cmax,[35],10100 ng/mL
same,EC50,[36],8 nM
same,Activity,[37],inactive
